Assay results published in patent US20210317102A1, “INHIBITORS OF INTEGRATED STRESS RESPONSE PATHWAY” (Praxis Biotech LLC, priority 2019, published 2021).

How the values were obtained:
[1] = tested on: Chinese hamster ovary (CHO) cells; assay: Protein synthesis assay (puromycin incorporation, western blot); type: cell-based; settings: 2 hours, media alone = 100%; for activity at 1 µM: Cricetulus griseus, unstressed CHO cells (without Tg), 1 μM test compound, read-out: % Protein synthesis relative to untreated (1 μM test compound); for % Recovery of protein synthesis (1 μM test compound): stressed CHO cells, 300 nM Tg plus 1 μM test compound, Tg alone = 0%
Method: Chinese hamster ovary (CHO) cells were maintained at 37° C. and 5% CO2 in Dulbecco's Modified Eagle's Media (DMEM) supplemented with 10% fetal bovine serum, 2 mM L-glutamine, 100 U/ml penicillin, and 100 μg/ml streptomycin. After reaching 80% of confluence, cells were detached and seeded on 6 well plates in complete media, allowed to recover overnight and treated for 2 hours with 1 μM of the test compound (to assess protein synthesis levels in unstressed condition), or for 2 hours with 300 nM Tg in the presence of 1 μM of the test compound (to assess the recovery of protein synthesis in a stressed condition). Cells with Tg alone were used as controls.
After the 2 hours treatments, media were replaced by adding 10 μg/ml puromycin (Sigma Aldrich #P8833) in complete media for 30 min. Media were removed and cells were lysed with SDS-PAGE lysis buffer. Lysates were transferred to 1.5 ml tubes and sonicated for 3 min and total protein amount were quantified using BCA Protein Assay Kit (Pierce). Equal amount of protein (30 μg) was loaded on SDS-PAGE gels. Proteins were transferred onto […] PVDF membranes (BioRad) and probed with primary antibodies diluted in Tris-buffered saline supplemented with 0.1% Tween 20 (Merck #S6996184 505) and 3% bovine serum albumin (Rockland #BSA-50).
Puromycin (12D10) (Merck #MABE343) and j-actin (Sigma Aldrich #A5441) antibodies were used as primary antibody. A HRP-conjugated secondary antibody (Rockland) was employed to detect immune-reactive bands using enhanced chemiluminescence (ECL Western Blotting Substrate, Pierce). Quantification of protein bands was done by densitometry using ImageJ software.
Percent increase of protein synthesis in unstressed cells (without Tg treatment) in the presence of media alone or certain test compounds is shown in Table 3. The percentage levels were normalized to the media alone condition, which correspond to 100% protein synthesis.
Percent recovery of protein synthesis in stressed cells (with Tg treatment) due to the test compounds at 1 μM is also shown in Table 3. The levels were normalized to the media alone and Tg alone conditions, which correspond to 100% and 0% respectively.

[2] = tested on: ATF4 expression, HEK293T cells carrying the ATF4 luciferase reporter; assay: ATF4 expression inhibition assay (ATF4 luciferase reporter); type: cell-based; settings: Homo sapiens, HEK-293T, 100 nM thapsigargin, 3 hours
Method: The ATF4 reporter was prepared by fusing the human full length 5′UTR of ATF4 (NCBI Accession No. BC022088.2) upstream of the firefly luciferase coding sequence lacking the initiator methionine. The fused sequence was cloned into pLenti-EFla-C-Myc-DDK-IRES-Puro cloning vector (Origen #PS100085) using standard methods. Virus production was carried out by using Lenti-X™ Packaging Single Shots Protocol (Clonetech #631276). Viral particles were used to transduce HEK293T cells (ATCC #CRL-3216, ATCC Manassas, Va.), which were subsequently selected with puromycin to generate stable cell line. Cells were maintained at 37° C. and 5% CO2 in DMEM-F12 (Hyclone #SH30023.02) supplemented with 10% heat-inactivated fetal bovine serum (Gibco #16000-044), 2 mM L-glutamine (Gibco #25030-081), 100 U/ml penicillin, and 100 μg/ml streptomycin (Gibco #^15140-122).
HEK293T cells carrying the ATF4 luciferase reporter were plated on 96-well plates (Nunc) at 10,000 cells per well. Cells were treated two days after seeding with 100 nM thapsigargin (Tg) (Sigma-Aldrich #T9033) in the presence of different concentrations of selected compounds ranging from 1 nM to 10 μM. Cells without treatment or cells treated with Tg alone were used as controls. Assay plates containing cells were incubated for 3 hours at 37° C.
Luciferase reactions were performed using Luciferase Assay System (Promega #E1501) as specified by the manufacturer. Luminescence was read with an integration time of 1 s and a gain of 110 using a Cytation-5 multi-mode microplate reader (BioTek). Relative luminescence units were normalized to Tg treatment (0% inhibition) and untreated cells (100% inhibition) and the percentage of ATF4 inhibition was calculated.
Accordingly, inhibition of ATF4 expression as a result of the test compound indicates suppression of the ISR pathway.

Row | SMILES | activity at 1 µM [1] | % Recovery of protein synthesis (1 μM test compound) [1] | IC50 [2]
1 | NC(COc1ccc(Cl)c(F)c1)CN1CCC(NC(=O)c2ccc3cc(Cl)ccc3n2)CC1 (centres unmarked) [Compound 1, N-(1-(2-amino-3-(4-chloro-3-fluorophenoxy)propyl)piperidin-4-yl)-6-chloroquinoline-2-carboxamide] | 167% | 233.4% | > 1000 nM
2 | O=C(COc1ccc(Cl)c(F)c1)NC1CC2CCC1CN2CC(O)COc1ccc(Cl)c(F)c1 (centres unmarked) [Compound 2, 2-(4-chloro-3-fluorophenoxy)-N-(2-(3-(4-chloro-3-fluorophenoxy)-2-hydroxypropyl)-2-azabicyclo[2.2.2]octan-5-yl)acetamide] | 98.3% | 252.0% | < 1000 nM
3 | O=C(COc1ccc(Cl)c(F)c1)N[C@H]1CC[C@H](NC(=O)c2nc3ccc(Cl)cc3[nH]2)CC1 [Compound 3, trans-6-chloro-N-(4-(2-(4-chloro-3-fluorophenoxy)acetamido)cyclohexyl)-1H-benzo[d]imidazole-2-carboxamide] | 120% | 109.9% | < 1000 nM
4 | O=C(NC1CCN(CC(O)COc2ccc(Cl)c(F)c2)CC1)c1nc2ccc(Cl)cc2[nH]1 (centres unmarked) [Compound 4, 6-chloro-N-(1-(3-(4-chloro-3-fluorophenoxy)-2-hydroxypropyl)piperidin-4-yl)-1H-benzo[d]imidazole-2-carboxamide] | 164% | 246.6% | < 1000 nM
5 | O=C(COc1ccc(Cl)c(F)c1)NCC1CCN(CC(O)COc2ccc(Cl)c(F)c2)CC1 (centres unmarked) [Compound 5, 2-(4-chloro-3-fluorophenoxy)-N-((1-(3-(4-chloro-3-fluorophenoxy)-2-hydroxypropyl)piperidin-4-yl)methyl)acetamide] | 82.5% | 71.9% | > 1000 nM
6 | O=C(NCC1CCN(CC(O)COc2ccc(Cl)c(F)c2)CC1)c1cc2cc(Cl)ccc2o1 (centres unmarked) [Compound 6, 5-chloro-N-((1-(3-(4-chloro-3-fluorophenoxy)-2-hydroxypropyl)piperidin-4-yl)methyl)benzofuran-2-carboxamide] | 179% | – | < 1000 nM
7 | O=C(NCC1CCN(CC(O)COc2ccc(Cl)c(F)c2)CC1)c1ccc2cc(Cl)ccc2n1 (centres unmarked) [Compound 7, 6-chloro-N-((1-(3-(4-chloro-3-fluorophenoxy)-2-hydroxypropyl)piperidin-4-yl)methyl)quinoline-2-carboxamide] | 114% | 131.9% | > 1000 nM
8 | O=C(N[C@H]1CC[C@H](NCC(O)COc2ccc(Cl)cc2)CC1)c1nc2ccc(Cl)cc2[nH]1 (stereo partly drawn) [Compound 8, trans-6-chloro-N-(4-((3-(4-chlorophenoxy)-2-hydroxypropyl)amino)cyclohexyl)-1H-benzo[d]imidazole-2-carboxamide] | 175% | 128.3% | > 1000 nM
9 | O=C(COc1ccc(Cl)c(F)c1)NC[C@H]1CC[C@H](NC(=O)COc2ccc(Cl)c(F)c2)CC1 [Compound 9, trans-2-(4-chloro-3-fluorophenoxy)-N-((4-(2-(4-chloro-3-fluorophenoxy)acetamido)cyclohexyl)methyl)acetamide] | 119% | 26.1% | 72.4 nM
10 | O=C(COc1ccc(Cl)c(F)c1)NC[C@H]1CC[C@H](NC(=O)c2ccc3cc(Cl)ccc3n2)CC1 [Compound 12, trans-6-chloro-N-(4-((2-(4-chloro-3-fluorophenoxy)acetamido)methyl)cyclohexyl)quinoline-2-carboxamide] | 200% | 187.4% | 120 nM
11 | O=C(COc1ccc(Cl)c(F)c1)NC[C@H]1CC[C@H](NC(=O)c2cc3cc(Cl)ccc3o2)CC1 [Compound 13, trans-5-chloro-N-(4-((2-(4-chloro-3-fluorophenoxy)acetamido)methyl)cyclohexyl)benzofuran-2-carboxamide] | 129% | 120.4% | 19 nM
12 | O=C(COc1ccc(Cl)c(F)c1)NC[C@H]1CC[C@H](NCC(O)COc2ccc(Cl)c(F)c2)CC1 (stereo partly drawn) [Compound 14, trans-2-(4-chloro-3-fluorophenoxy)-N-((4-((3-(4-chloro-3-fluorophenoxy)-2-hydroxypropyl)amino)cyclohexyl)methyl)acetamide] | 150% | 53.2% | > 10000 nM
13 | O=C(COc1ccc(Cl)cc1)N[C@H]1CC[C@H](CNC(=O)c2cc3cc(Cl)ccc3o2)CC1 [Compound 15, trans-5-chloro-N-((4-(2-(4-chlorophenoxy)acetamido)cyclohexyl)methyl)benzofuran-2-carboxamide] | 204% | 176.3% | 1.45 nM
14 | COc1ccc2oc(C(=O)NC[C@H]3CC[C@H](NC(=O)COc4ccc(Cl)c(F)c4)CC3)cc2c1 [Compound 16, trans-N-((4-(2-(4-chloro-3-fluorophenoxy)acetamido)cyclohexyl)methyl)-5-methoxybenzofuran-2-carboxamide] | 147% | 102.4% | 5.25 nM
15 | O=C(COc1ccc(Cl)c(F)c1)N[C@H]1CC[C@H](CNC(=O)c2ccc(Cl)cc2)CC1 [Compound 17, trans-4-chloro-N-((4-(2-(4-chloro-3-fluorophenoxy)acetamido)cyclohexyl)methyl)benzamide] | 96.5% | 49.5% | 2.36 nM
16 | O=C(COc1ccc(Cl)c(F)c1)N[C@H]1CC[C@H](CNC(=O)c2ccc(OC(F)(F)F)cc2)CC1 [Compound 18, trans-N-((4-(2-(4-chloro-3-fluorophenoxy)acetamido)cyclohexyl)methyl)-4-(trifluoromethoxy)benzamide] | 105% | 60.0% | 5.63 nM
17 | O=C(COc1ccc(Cl)c(F)c1)N[C@H]1CC[C@H](CNC(=O)c2ccc(Cl)cn2)CC1 [Compound 19, trans-5-chloro-N-((4-(2-(4-chloro-3-fluorophenoxy)acetamido)cyclohexyl)methyl)picolinamide] | 131% | 32.5% | 20.1 nM
18 | O=C(COc1ccc(Cl)c(F)c1)N[C@H]1CC[C@H](CNC(=O)c2ccc(C(F)(F)F)cn2)CC1 [Compound 20, trans-N-((4-(2-(4-chloro-3-fluorophenoxy)acetamido)cyclohexyl)methyl)-5-(trifluoromethyl)picolinamide] | 75.6% | 34.8% | 2.43 nM
19 | O=C(COc1ccc(Cl)c(F)c1)N[C@H]1CC[C@H](CNC(=O)c2cnc(C(F)F)cn2)CC1 [Compound 21, trans-N-((4-(2-(4-chloro-3-fluorophenoxy)acetamido)cyclohexyl)methyl)-5-(difluoromethyl)pyrazine-2-carboxamide] | 67.8% | 11.4% | 17.8 nM
